Data published in US20240261296A1, “THERAPEUTIC MODALITIES FOR INHIBITING PANCREATIC BETA CELL IMPAIRMENT AND TREATING DIABETES” (Hadasit Medical Research Serices & Development Ltd., priority 2021, published 2024).
Entries after “also recorded” stand apart in the source; their conditions may differ.

Key:
Format in all cases: in vivo
[1] = system: db/db mice; assay: fasting blood glucose (FBG) in db/db and control mice
Description: Fasting blood glucose (FBG) concentrations in each of the treated groups were also compared following 4- and 8-weeks treatment as described in Example 9. Results for the 4-weeks treatment of the control mice and the db/db mice are presented in FIGS. 20A-20B respectively and for the 8-weeks treatment of the control mice and the db/db mice are presented in FIGS. 20C-20D, respectively; each treatment is graphically represented as described in Example 9.
FBG concentrations. FBG concentrations in each of the treated groups, vehicle, L-798106, C17 and C20, was compared following 4- and 8-weeks treatment essentially as described in Example 11. Results for the 4-weeks treatment of the control mice and the db/db mice are presented in FIGS. 29A-29B respectively and for the 8-weeks treatment of the control mice and the db/db mice are presented in FIGS. 29C-29D, in which, each treatment is graphically represented as described in Example 14, The numbers of tested mice are as follows: control mice (n=10-15), db/db mice (n=10).

[2] = kidney function parameters in sera of C57Bl/6 mice
Experimental: Blood was collected by cardiac puncture, and 50 μl were collected in EDTA containing tubes for cell blood count (CBC). Further, 200-300 μl of blood was centrifuged and serum was collected for biochemical analysis.
D. Effects of orally administered compounds on kidney function parameters: Creatinine and Urea levels were measured in the sera obtained from mice 24 h after the third gavage with saline/DMSO (Control Saline); 3 mg/kg/day Compound C5; Compound C13 or the EP3 antagonist L-798106. […] 12 B for Urea.
D. Kidney function parameters: Creatinine (FIG. 15A) and Urea (FIG. 15B) were measured in sera obtained from mice, 24 h after injection of either Saline/DMSO (Control Saline), Compound C5 or L-798106.

[3] = blood insulin concentrations by serum C-peptide ELISA; settings: 8 weeks oral treatment; vs vehicle-treated diabetic mice
Experimental: At the end of the 8 week-long period of treatment as described in Example 9, mice were sacrificed and blood samples were collected, and analyzed for different parameters as detailed below.
Blood insulin concentrations.
Blood insulin concentrations. Following 8 weeks of treatment, blood samples were collected and the levels of insulin in the collected sera were assessed essentially as described in Example 12. The results are presented in FIG. 28, in which the different test groups as presented in FIG. 28 are represented as described in Example 14 and “ns” indicates non-significant differences. The numbers of tested mice are as follows: vehicle (n=10), L-798106 (n=10), C17 (n=5), C20 (n=5).

[4] = glycemia evaluation in C57Bl/6 mice; settings: for blood glucose concentration: IP 3 mg/kg, t0, 5 h, 24 h; for blood glucose concentrations: oral gavage 3 mg/kg/day for 3 days, t0, 5 h after each gavage, 24 h after last
Experimental: Male mice (n=8 per group) were assigned to the following test groups. A dosage of 3 mg/kg/mouse was administered daily for 3 consecutive days in 200 μl of:
Group A: saline and DMSO carrier (referred to throughout the drawings and examples describing the in vivo experiment as “Control-Saline”, “Vehicle”, “Saline” or “Control”), at the equivalent concentration administered the other test groups (2.5%). Group B: Compound 1b (C5) at 3 mg/Kg: (total of 9 mg/Kg). Group C: Compound 1a (C13) at 3 mg/Kg: (total of 9 mg/Kg). Group D: L-798106 at 3 mg/Kg: (total of 9 mg/Kg).
A. For glycemia evaluation, blood glucose was measured from the vein tail at the following time points (t(h)—time in hours): t=0—before gavage; t=5 h—following each gavage on days 1, 2 and 3 (5G1, 5G2 and 5G3, respectively); and t=24 h—after the last gavage (24G3).
A. Glycemia evaluation: Glucose concentration was measured in blood obtained from the vein tail of C57Bl/6 mice (n=12/group). Results are represented in FIGS. 13A-13D, in which, t(h) represents time in hours as follows: before injection (t0), at time 5 h (t5) and 24 h (t24) after injection of 200 μl saline/DMSO (FIG. 13A); of 3 mg/kg of C5 (FIG. 13B); C13 (FIG. 13C); or L-798106 (FIG. 13D), by using Accu-Chek performa glucometer.

[5] = system: db/db mice; assay: intraperitoneal glucose tolerance test (IPGTT)
Experimental: Lepr^db/db homozygotes (db/db) and heterozygote Lepr^db/+ (wild type) mice were treated daily with 2.5 mg/kg/day oral administration of the Vehicle, the commercial EP3 antagonist L-798106 and the compounds C5 and C13 for 8 weeks, as described in Example 9. A glucose tolerance test (Intraperitoneal glucose tolerance test, IPGTT) was performed following four weeks and eight weeks of the onset of treatment, as follows. Glucose (1 g/kg) was injected following 8 hours of fasting, and blood glucose was measured at baseline and at 30-, 60-, 90- and 120-minutes post glucose administration.
Heterozygote (wild type) and diabetic db/db mice were treated daily with the Vehicle, L-798106 and the compounds C17 and C20 for 8 weeks, essentially as described in Example 9. A glucose tolerance test (IPGTT) was performed essentially as described in Example 10.

[6] = system: db/db mice; assay: Insulin Tolerance Test (ITT); settings: 8 weeks oral treatment; for glucose levels after insulin injection (insulin sensitivity), db/db mice: 0.75 U/kg insulin, all time points, vs vehicle
Experimental: An Insulin Tolerance Test (ITT) was conducted to determine the effect of the test compounds on insulin resistance, following oral administration of Vehicle or the tested compounds as described in Example 9. To this end, the different treated groups were further subjected to a subsequent 5-hour fast and then injected with 0.75 U/kg insulin. Blood glucose was measured at the time of insulin injection (baseline level) and at the indicated time intervals thereafter. Blood glucose levels and AUC of the wild-type mice are presented in FIGS. 19A-19B respectively, and blood glucose levels and AUC of the db/db mice are presented in FIGS. 19C-19D respectively. The different test groups as presented in FIGS. 19A-19D are represented as described in Example 9.
To determine the effect of the C17 and C20 compounds on insulin resistance, an ITT was conducted essentially as described in Example 11. Blood glucose levels and AUC of the wild-type mice are presented in FIGS. 27A-27B respectively (n=5-15), and blood glucose levels and AUC of the db/db mice are presented in FIGS. 27C-27D respectively (n=5-10). The different test groups as presented in FIGS. 27A-27D are represented as described in Example 14.

[7] = 4 weeks of treatment, vs vehicle
[8] = oral 3 mg/kg/day, 24 h after third gavage
[9] = 8 weeks oral 2.5 mg/kg/day, glucose 1 g/kg, all time points, vs vehicle

| Structure (SMILES) | FBG in db/db mice [1, 7] | FBG in control mice ([1]; 8 weeks of treatment) | Creatinine ([2]; IP, 24 h after injection) | Urea ([2]; IP, 24 h after injection) | Creatinine [2, 8] | Urea [2, 8] | blood insulin levels (serum C-peptide) in diabetic mice [3] | blood glucose concentration [4] | blood glucose concentrations [4] | hyperglycemia in IPGTT, db/db mice [5, 9] | hyperglycemia in IPGTT, db/db mice ([5]; four weeks of treatment) | glucose levels after insulin injection (insulin sensitivity), db/db mice [6] | FBG in db/db mice ([1]; 8 weeks of treatment) | hyperglycemia in IPGTT, db/db mice ([5]; 8 weeks oral 2.5 mg/kg/day, glucose 1 g/kg, all time points, vs vehicle, 2.5 mg/kg/day) | baseline glucose levels in ITT ([6]; 5-hour fast) |
| --- | --- | --- | --- | --- | --- | --- | --- | --- | --- | --- | --- | --- | --- | --- | --- |
| CC[C@H](C)c1ccc(S(=O)(=O)Nc2ccccc2C(=O)N2C[C@@H](C)O[C@@H](C)C2)cc1 [Compound C5, 4-((S)-sec-butyl)-N-(2-((2S,6R)-2,6-dimethylmorpholine-4-carbonyl)phenyl)benzenesulfonamide] | significant decrease in FBG | decrease in FBG in the control mice, although to a much lesser extent | no statistically significant differences | no statistically significant differences | No statistically significant differences | No statistically significant differences | the differences did not reach statistical significance | no differences were observed | no significant alterations | significantly alleviated hyperglycemia | reduction of hyperglycemia could already be seen | Improve Insulin Sensitivity | – | – | – |
| CC[C@@H]1CC[C@H](C)N1C(=O)c1cccc(NS(=O)(=O)c2ccc(C)c(F)c2)c1 [Compound C13, N-(3-((2R,5S)-2-ethyl-5-methylpyrrolidine-1-carbonyl)phenyl)-3-fluoro-4-methylbenzenesulfonamide] | significant decrease in FBG | decrease in FBG in the control mice, although to a much lesser extent | p-value >0.05 | p-value >0.05 | No statistically significant differences | No statistically significant differences | the differences did not reach statistical significance | no differences were observed | no significant alterations | significantly alleviated hyperglycemia | reduction of hyperglycemia could already be seen | Improve Insulin Sensitivity | significantly more pronounced | – | – |
| COc1ccc(Br)cc1S(=O)(=O)NC(=O)/C=C/c1ccccc1Cc1ccc2ccccc2c1 [Compound L-798106, (2E)-N-[(5-bromo-2-methoxyphenyl)sulfonyl]-3-[2-(2-naphthalenylmethyl)phenyl]-2-propenamide, reference compound] | significant decrease in FBG | decrease in FBG in the control mice, although to a much lesser extent | no statistically significant differences | no statistically significant differences | No statistically significant differences | No statistically significant differences | the differences did not reach statistical significance | no differences were observed | no significant alterations | – | reduction of hyperglycemia could already be seen | significant decrease in glucose levels | significantly more pronounced | significantly alleviated hyperglycemia; also recorded: appeared to be statistically more significant | reduced baseline glucose levels |
